Measured values as given in patent US20070218150A1, “Active Oxygen Scavenging Agent and Moisturizing Agent Containing Wild Watermelon Extract” (priority 2004, published 2007).

Test: active oxygen (hydroxyl radical) scavenging, competitive reaction analysis using salicylic acid oxidation as an index
Assay type: biochemical
Conditions: 50 mg/l of citrulline solution; 25 degrees, 90 minutes, pH 7.4
Protocol: The active oxygen scavenging ability of the wild watermelon fruit extract is assayed by competitive reaction analysis using salicylic acid oxidation as an index. Specifically, 2 mM salicylic acid and the wild watermelon fruit extract of various concentrations are dissolved in 50 mM phosphate buffer (pH 7.4). After that, by adding 0.6 mM of hydrogen peroxide, 0.15 mM of FeEDTA and 0.26 mM of ascorbic acid, hydroxyl radical is generated, and reacted at 25 degrees for 90 minutes. Quantitation of dihydroxyl benzoic acid (DHBA) generated by salicylic acid oxidation followed the method as set forth in the literature (Smirnofff and Cumbes (1989) Phytochemistry, 28: 1057-1060.)

## NC(=O)NCCC[C@H](N)C(=O)O [citrulline]
  inhibition of salicylic acid oxidation: 6%
